From ChEMBL document CHEMBL5500339, “4-Hydroxy-2-pyridone derivatives with antitumor activity produced by mangrove endophytic fungus Talaromyces sp. CY-3” (Eur J Med Chem, 2024)
Activity calls are given as the source filed them. The rule behind the calls is not given here.

Legend:
4T1 = experiment: Cytotoxicity against mouse 4T1 cells assessed as reduction in cell viability incubated for 48 hrs by MTT assay; assay type: functional, cell-based; conditions: 4T1, 48 h
A549 [1] = experiment: Induction of cell cycle arrest in human A549 cells assessed as downregulation of CyclinD1 protein expression incubated for 24 hrs by Western blotting analysis; assay type: functional, cell-based
NCI-H1703 [2] = experiment: Inhibition of colony formation in human NCI-H1703 cells at 2.5 uM incubated for 7 days by crystal violet staining analysis; assay type: functional, cell-based; conditions: time 7.0 day
B16-F10 = experiment: Cytotoxicity against mouse B16-F10 cells assessed as reduction in cell viability incubated for 48 hrs by MTT assay; assay type: functional, cell-based; conditions: B16-F10, 48 h
A549 [3] = experiment: Induction of cell cycle arrest in human A549 cells assessed as accumulation of cells at G1/G0 phase at 20 uM incubated for 24 hrs by flow cytometric analysis (reference value: 51.49 %); assay type: functional
NCI-H1703 [4] = experiment: Antiproliferative activity against human NCI-H1703 cells assessed as inhibition of cell growth incubated for 18 hrs by Edu incorporation based fluorescence microscopic analysis; assay type: functional
MC-38 = experiment: Cytotoxicity against mouse MC38 cells assessed as reduction in cell viability incubated for 48 hrs by MTT assay; assay type: functional, cell-based; conditions: MC-38, 48 h
NCI-H1703 [5] = experiment: Antiproliferative activity against human NCI-H1703 cells assessed as inhibition of cell growth at 20 uM incubated for 24 hrs by MTT assay; assay type: functional, cell-based
NCI-H1703 [6] = experiment: Cytotoxicity against human NCI-H1703 cells assessed as reduction in cell viability incubated for 48 hrs by MTT assay; assay type: functional, cell-based; conditions: NCI-H1703, 48 h
NCI-H1703 [7] = experiment: Induction of cell cycle arrest in human NCI-H1703 cells assessed as accumulation of cells at G2/M phase at 10 uM incubated for 24 hrs by flow cytometric analysis (reference value: 29.88 %); assay type: functional
HCT-116 = experiment: Cytotoxicity against human HCT-116 cells assessed as reduction in cell viability incubated for 48 hrs by MTT assay; assay type: functional, cell-based; conditions: HCT-116, 48 h
MDA-MB-231 = experiment: Cytotoxicity against human MDA-MB-231 cells assessed as reduction in cell viability incubated for 48 hrs by MTT assay; assay type: functional, cell-based; conditions: MDA-MB-231, 48 h
A549 [8] = experiment: Induction of cell cycle arrest in human A549 cells assessed as downregulation of total Rb protein level at 20 uM incubated for 24 hrs by Western blotting analysis; assay type: functional, cell-based
A549 [9] = experiment: Induction of cell cycle arrest in human A549 cells assessed as accumulation of cells at G2/M phase at 20 uM incubated for 24 hrs by flow cytometric analysis (reference value: 17.2 %); assay type: functional
Hepa 1-6 = experiment: Cytotoxicity against mouse Hepa1-6 cells assessed as reduction in cell viability incubated for 48 hrs by MTT assay; assay type: functional, cell-based; conditions: Hepa1-6, 48 h
CT26 = experiment: Cytotoxicity against mouse CT26 cells assessed as reduction in cell viability incubated for 48 hrs by MTT assay; assay type: functional, cell-based; conditions: CT26, 48 h
A549 [10] = experiment: Induction of cell cycle arrest in human A549 cells assessed as downregulation of Rb phosphorylation at Ser807/811 residue at 20 uM incubated for 24 hrs by Western blotting analysis; assay type: functional, cell-based
A549 [11] = experiment: Induction of cell cycle arrest in human A549 cells assessed as downregulation of Rb phosphorylation at Ser807/811 residue at 10 uM incubated for 24 hrs by Western blotting analysis; assay type: functional, cell-based
NCI-H1703 [12] = experiment: Induction of cell cycle arrest in human NCI-H1703 cells assessed as accumulation of cells at S phase at 10 uM incubated for 24 hrs by flow cytometric analysis (reference value: 28.06 %); assay type: functional
A549 [13] = experiment: Antiproliferative activity against human A549 cells assessed as inhibition of cell growth incubated for 18 hrs by Edu incorporation based fluorescence microscopic analysis; assay type: functional
A549 [14] = experiment: Antiproliferative activity against human A549 cells assessed as inhibition of cell growth at 10 uM incubated for 24 hrs by MTT assay; assay type: functional, cell-based
A549 [15] = experiment: Induction of cell cycle arrest in human A549 cells assessed as upregulation of p21 protein expression incubated for 24 hrs by Western blotting analysis; assay type: functional, cell-based
NCI-H1703 [16] = experiment: Induction of cell cycle arrest in human NCI-H1703 cells assessed as downregulation of CyclinD1 protein expression incubated for 24 hrs by Western blotting analysis; assay type: functional, cell-based
A549 [17] = experiment: Antiproliferative activity against human A549 cells assessed as inhibition of cell growth at 20 uM incubated for 24 hrs by MTT assay; assay type: functional, cell-based
NCI-H1703 [18] = experiment: Induction of cell cycle arrest in human NCI-H1703 cells assessed as accumulation of cells at G1/G0 phase at 5 uM incubated for 24 hrs by flow cytometric analysis (reference value: 42.06 %); assay type: functional
A549 [19] = experiment: Induction of cell cycle arrest in human A549 cells assessed as accumulation of cells at S phase at 10 uM incubated for 24 hrs by flow cytometric analysis (reference value: 31.31 %); assay type: functional
NCI-H1703 [20] = experiment: Induction of cell cycle arrest in human NCI-H1703 cells assessed as downregulation of total Rb protein level at 10 uM incubated for 24 hrs by Western blotting analysis; assay type: functional, cell-based
A549 [21] = experiment: Induction of cell cycle arrest in human A549 cells assessed as accumulation of cells at G2/M phase at 10 uM incubated for 24 hrs by flow cytometric analysis (reference value: 17.2 %); assay type: functional
SNB-19 = experiment: Cytotoxicity against human SNB-19 cells assessed as reduction in cell viability incubated for 48 hrs by MTT assay; assay type: functional, cell-based; conditions: SNB-19, 48 h
A549 [22] = experiment: Inhibition of colony formation in human A549 cells at 20 uM incubated for 7 days by crystal violet staining analysis; assay type: functional, cell-based; conditions: time 7.0 day
A549 [23] = experiment: Induction of cell cycle arrest in human A549 cells assessed as downregulation of CDK6 protein expression incubated for 24 hrs by Western blotting analysis; assay type: functional, cell-based
NCI-H1703 [24] = experiment: Induction of cell cycle arrest in human NCI-H1703 cells assessed as downregulation of CDK4 protein expression incubated for 24 hrs by Western blotting analysis; assay type: functional, cell-based
NCI-H1703 [25] = experiment: Induction of cell cycle arrest in human NCI-H1703 cells assessed as upregulation of p53 protein expression incubated for 24 hrs by Western blotting analysis; assay type: functional, cell-based
PC-3 = experiment: Cytotoxicity against human PC-3 cells assessed as reduction in cell viability incubated for 48 hrs by MTT assay; assay type: functional, cell-based; conditions: PC-3, 48 h
NCI-H1703 [26] = experiment: Induction of cell cycle arrest in human NCI-H1703 cells assessed as accumulation of cells at G1/G0 phase at 10 uM incubated for 24 hrs by flow cytometric analysis (reference value: 42.06 %); assay type: functional
NCI-H1703 [27] = experiment: Induction of cell cycle arrest in human NCI-H1703 cells assessed as downregulation of Rb phosphorylation at Ser807/811 residue at 10 uM incubated for 24 hrs by Western blotting analysis; assay type: functional, cell-based
A549 [28] = experiment: Induction of cell cycle arrest in human A549 cells assessed as accumulation of cells at S phase at 20 uM incubated for 24 hrs by flow cytometric analysis (reference value: 31.31 %); assay type: functional
A549 [29] = experiment: Inhibition of colony formation in human A549 cells at 10 uM incubated for 7 days by crystal violet staining analysis; assay type: functional, cell-based; conditions: time 7.0 day
NCI-H1703 [30] = experiment: Induction of cell cycle arrest in human NCI-H1703 cells assessed as downregulation of total Rb protein level at 5 uM incubated for 24 hrs by Western blotting analysis; assay type: functional, cell-based

## C/C=C/[C@@H]1[C@H]2C[C@@H](C)CC[C@@H]2C(C)=C[C@H]1C(=O)c1c(O)c(-c2ccc(O)cc2)c[nH]c1=O [ILICICOLIN H]
4T1
  IC50: 13.8 µM
A549 [1]
  Activity: Dose-Dependent Effect
NCI-H1703 [2]
  inhibition: Active
B16-F10
  IC50: 21.6 µM
A549 [3]
  Activity: 72.12%
NCI-H1703 [4]
  Activity: Dose-Dependent Effect
MC-38
  IC50: 19.6 µM
NCI-H1703 [5]
  Activity: Active
NCI-H1703 [6]
  IC50: 6.65 µM
NCI-H1703 [7]
  Activity: 19.48%
HCT-116
  IC50: 10.8 µM
MDA-MB-231
  IC50: 9.98 µM
A549 [8]
  Activity: inactive
A549 [9]
  Activity: 12.93%
Hepa 1-6
  IC50: 19.6 µM
CT26
  IC50: 19.5 µM
A549 [10]
  Activity: Active
A549 [11]
  Activity: Active
NCI-H1703 [12]
  Activity: 24.49%
A549 [13]
  Activity: Dose-Dependent Effect
A549 [14]
  Activity: Active
A549 [15]
  Activity: Dose-Dependent Effect
NCI-H1703 [16]
  Activity: Dose-Dependent Effect
A549 [17]
  Activity: Active
NCI-H1703 [18]
  Activity: 50.13%
A549 [19]
  Activity: 10.84%
NCI-H1703 [20]
  Activity: inactive
A549 [21]
  Activity: 24%
SNB-19
  IC50: 14.6 µM
A549 [22]
  inhibition: Active
A549 [23]
  Activity: Dose-Dependent Effect
NCI-H1703 [24]
  Activity: Dose-Dependent Effect
NCI-H1703 [25]
  Activity: Dose-Dependent Effect
PC-3
  IC50: > 50 µM
NCI-H1703 [26]
  Activity: 56.04%
NCI-H1703 [27]
  Activity: Active
A549 [28]
  Activity: 14.95%
A549 [29]
  inhibition: Active
NCI-H1703 [30]
  Activity: inactive
